Legend:
[1] = test system: homodimerized RACK1A maintaining yeast cells (AA); experiment: UV-B induced cell death in homodimerized RACK1A maintaining yeast cells (AA); format: cell-based; details: 60 μM overnight, Live/dead staining, vs DMSO-only control
Procedure: (§1) In this experiment, yeast cells were irradiated with UV-B light to analyze the effect of SD-29 analogs on UV-B induced cell death. The yeast cells were developed to assay for RACK1A homodimerization assays using split-ubiquitin technique. In this assay, homodimerized RACK1A maintaining yeast cells (AA) were grown overnight in the presence of 60 μM of the indicated compounds. Yeast cells treated overnight with SD-29-7, SD-29-9, and SD-29-11 with and without exposure to UV-B were compared to a DMSO-only control. The cells were stained with Invitrogen's Live/dead cell assay system where dead cells appeared as intensely fluorescent with brightness under a fluorescent microscope.
(§2) In this experiment, yeast was treated with UV-B to analyze the effect of SD-29-12 on UV-B induced cell death. Two groups of yeast were used. One was the yeast used in Example 6 (“AA”) and the other (“YY”) is a Y248F mutant. The AA cells can homodimerize but YY cells cannot.
(§3) The yeast was treated overnight with SD-29-12 and then followed the same protocol as described in Example 6.

RACK1A = RACK1A (Arabidopsis thaliana, UniProt O24456); experiment: in-vitro assay of tyrosine phosphorylation (Y248) based homodimerization of RACK1A; format: biochemical; details: in-vitro assay
Chain of RACK1A (O24456 whole entry): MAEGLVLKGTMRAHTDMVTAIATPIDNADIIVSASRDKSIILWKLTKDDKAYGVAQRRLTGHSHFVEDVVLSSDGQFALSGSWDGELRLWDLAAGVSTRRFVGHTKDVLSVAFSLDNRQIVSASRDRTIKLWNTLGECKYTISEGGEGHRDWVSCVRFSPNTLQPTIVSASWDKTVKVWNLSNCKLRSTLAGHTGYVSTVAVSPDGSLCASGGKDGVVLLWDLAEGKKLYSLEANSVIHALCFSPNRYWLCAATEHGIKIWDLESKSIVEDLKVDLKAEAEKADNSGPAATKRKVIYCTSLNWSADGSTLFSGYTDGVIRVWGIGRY
Excerpt: A crystal structure of Arabidopsis thaliana RACK1 protein has been reported. Deducing the crystal structure of the Arabidopsis RACK1A protein highlighted the potential functional residues of the protein. Noteworthy in the structure was the functionally conserved tyrosine phosphorylation residue (Y248) that has been implicated in RACK1A function. Therefore, it was undertaken to identify a chemical inhibitor of Y248 phosphorylation that would serve as a potential “anti-stress” compound in countering environmental stresses in plants. In order to identify small compounds occupying the Y248 pocket, docking simulations with a subset of 30,000 compounds were performed. Based on ranking with an energy cut-off of 25 kcal/mol, 3,011 compounds were then selected. Upon further re-ranking, 46 lead compounds were identified and 11 compounds were screened for their efficacy in an in-vitro assay. […] Those six compounds include SD-29, SD-29-9, SD-29-11, SD-29-22, SD-34, and SD-125.

Arabidopsis RACK1A = biological target: T1, Arabidopsis RACK1A (Arabidopsis thaliana, UniProt O24456); experiment: western blot of RACK1A tyrosine phosphorylation in Arabidopsis leaves under heat stress; format: in vivo; details: 42° C. for three hours, western blot, antibody to phosphorylated Y248
T1 construct: from tissue; host or cells: Arabidopsis plant leaves
T1 sequence (O24456 whole entry): as above
Procedure: In the examples described herein, the test compounds (e.g., SD-29 or analogs thereof) were dissolved in dimethyl sulfoxide (DMSO) to provide a 20 mM concentration. Micromolar concentrations were then prepared as needed by addition to the water incubation media. Unless stated otherwise, the experimental plants were incubated with the roots immersed in the water containing the compound. The control plants received only DMSO in the same amount as that of the compound. In the second group (FIG. 3), Arabidopsis plants were held at 42° C. for six hours and compared to control plants held at about 22° C. The Arabidopsis plant in the experimental group was treated with 60 μM SD-29 in water. A control plant received water and DMSO. Lysates were then prepared from the leaves and western blots were performed using immobilized mouse anti-pTRY and Arabidopsis-anti RAC[…]. […] A similar experiment was carried out using analog SD-29-9 and SD-29 at 42° C. for three hours. […] A western blot was then performed using an antibody that was raised targeting phosphorylated […] residue of RAC[…].

Arabidopsis plants = experiment: high temperature stress (42° C.) in Arabidopsis plants; format: in vivo, Arabidopsis thaliana
Y248F mutant yeast (YY) = experiment: UV-B induced cell death in Y248F mutant yeast (YY); format: cell-based; details: treated overnight, Live/dead staining
Procedure: as §1, §2, §3

plant = experiment: salt sensitivity when applied to a plant; details: in vivo

Row | Structure (SMILES) | UV-B induced cell death in yeast cells (AA) [1] | tyrosine phosphorylation (Y248) based homodimerization of RACK1A proteins (RACK1A) | other results
1 | Nn1c(SCc2ccc(F)cc2)nnc1-c1ccc(Cl)cc1 [SD-29-7] | did not protect the cells | – | –
2 | Cc1cc(Cl)ccc1NC(=O)CSc1nnc(-c2cccc(Cl)c2)n1N [SD-29-9] | effective to protect yeast cells from UV-B induced cell death | prevent tyrosine phosphorylation (Y248) based homodimerization of RACK1A proteins | Arabidopsis RACK1A tyrosine phosphorylation at increased temperature (Arabidopsis RACK1A): effective to prevent Arabidopsis RACK1A tyrosine phosphorylation at increased temperature
3 | COc1cc(-c2nnc(SCC(=O)Nc3ccc(Oc4ccccc4)cc3)n2N)cc(OC)c1OC [SD-29-11] | effective to protect yeast cells from UV-B induced cell death | prevent tyrosine phosphorylation (Y248) based homodimerization of RACK1A proteins | –
4 | COc1ccc(-c2nnc(SCC(=O)O)n2N)cc1 [SD-29-12] | effective to prevent UV-B induced cell death | – | high temperature stress induced deformations in Arabidopsis plants (Arabidopsis plants; 42° C., vs vehicle control (DMSO)): very effective in preventing high temperature stress induced deformations; heat sensitivity when applied to a plant (Arabidopsis plants; in vivo): does not induce heat sensitivity; UV-B induced cell death in Y248F mutant yeast (YY) (Y248F mutant yeast (YY)): failed to provide protection from UV-B induced cell death; salt sensitivity when applied to a plant (plant): induces salt sensitivity
5 | Cc1ccc2[nH]cc(C(O)C(F)(F)F)c2c1 (stereo not shown) [SD-34] | – | prevent tyrosine phosphorylation (Y248) based homodimerization of RACK1A proteins | –
6 | COc1ccc2[nH]cc(CC(N)C(=O)O)c2c1 (stereo not shown) [SD-125] | – | prevent tyrosine phosphorylation (Y248) based homodimerization of RACK1A proteins | –
